From EP2353599A1, “8-hydroxyquinolines as inhibitors of cathepsin B” (University of Ljubljana, priority 2010, dated 2011)

Biological target: Cathepsin B (Homo sapiens, UniProt P07858)
Assay: Reversibility with active site probe DCG-04 (labelling, SDS-PAGE, blot)
Type: binding
Conditions: 0.1, 1, 10 and 50 µM inhibitor, 1 h, then 2 µM DCG-04
Excerpt: Second, the reversibility of 5-nitro-8-hydroxyquinoline was also studied with the active site probe DCG-04. DCG-04 is a derivative of an irreversible epoxysuccinic inhibitor of cysteine proteases E-64 with an additional biotin moiety which enables detection of covalently modified proteases with labelling intensity correlating with enzymatic activity (Greenbaum D, Medzihradszky KF, Burlingame A, Bogyo M: Epoxide electrophiles as activity-dependent cysteine protease profiling and discovery tools. Chem Biol 2000, 7: 569-81.). 1 µg of recombinant cathepsin B in 50 mM Tris, pH 5.5 containing 1 mM DTT, 5 mM MgCl2 and 250 mM sucrose was incubated with 0.1, 1, 10 in 50 µM 5-nitro-8-hydroxyquinoline (diluted from 10 mM DMSO stocks) for 1 h at room temperature. Samples were then labelled with 2 µM DCG-04 for an additional h at room temperature. After boiling in reducing sample buffer for 10 min samples were analyzed by 12.5 % SDS-PAGE and transferred to a nitrocellulose membrane. The latter was then blocked with 0.5 % Tween 20 in PBS overnight at 4 °C and incubated with 1 µg/ml streptavidin-horseradish peroxidase in 0.2 % Tween 20 in PBS for 1 h at room temperature. The membrane was washed five times with 0.2 % Tween 20 in PBS and the spots on the membrane were visualized with 0.5 mg/ml 3,3'-diaminobenzidine and 0.0005 % (v/v) H2O2 in 50 mM Tris, pH 7.5. […]

O=[N+]([O-])c1ccc(O)c2ncccc12 [Compound 1, 5-nitro-8-hydroxyquinoline]
intensity of spots (DCG-04 labelling) versus DMSO control: did not differ significantly from the DMSO control
